This assay has as its target human kisspeptin receptor (Homo sapiens (Human), UniProt Q969F8). In words: Human KISS1R binding assay (membrane competition binding). The note with it: 90 min at room temperature; competition with 0.2 nM [125I]-metastin (45-54); Flp-In T-Rex 293 kisspeptin membranes; metal complexes nonradioactive Ga, In, Lu; read-out: hKiSSR Binding Ki (90 min). A digest of the protocol:
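Membranes from tetracycline-induced (48 h) Flp-In T-Rex 293 cells expressing receptor, 5–10 μg, incubated 90 min at room temperature with 0.2 nM [125I]-metastin (45-54) and competitor (typically 0–10,000 nM) in Tris/Mg/Ca/EGTA/0.1% BSA, pH 7.4. Filtration, washing, counting; Ki by non-linear regression.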

The term Ki denotes a measure of affinity in units of concentration, obtained from inhibition or displacement.

Numbered stars: 1 amine (or outer) side, 2 acyl side, 3 side chain; on linkers, the order of the positions; unused ones are H or OH. Square brackets hold non-standard residues; d marks the D form. Peptide text beside a SMILES is read from it. * marks the point of attachment. DOTA = O=C(O)CN1CCN(CC(=O)O)CCN(CC(=O)*)CCN(CC(=O)O)CC1; Gly(N-(3-F-4-Me-benzyl)) = Cc1ccc(CNCC(=O)*)cc1F; Acetyl(2-(HOCH2CH2OCH2CH2O)) = O=C(COCCOCCO)*; Gly(Nα-4-MeO-benzyl) = COc1ccc(CNCC(=O)*)cc1; Butanoyl(4-(4-MePh)) = Cc1ccc(CCCC(=O)*)cc1; Api(1-amidino) = N=C(N)N1CCC(N)(C(=O)O)CC1; d(γGlu) = O=C(O)[C@@H](CCC(=O)[*:2])N[*:1]; Hydrocinnamoyl(4-I) = O=C(CCc1ccc(I)cc1)*; Phe(4-CN) = N#Cc1ccc(C[C@H](N)C(=O)O)cc1; X3 = CNC(=N)N1CCC(N[*:1])(C(=O)[*:2])CC1; Phe(3-F) = N[C@@H](Cc1cccc(F)c1)C(=O)O; 2Nal = N[C@@H](Cc1ccc2ccccc2c1)C(=O)O; d2Nal = N[C@H](Cc1ccc2ccccc2c1)C(=O)O; X1 = O=C(CN1CCC(N[*:1])CC1)[*:2]; 4Pal = N[C@@H](Cc1ccncc1)C(=O)O; Cha = N[C@@H](CC1CCCCC1)C(=O)O; 4Amb = NCc1ccc(C(=O)O)cc1; Octanoyl = CCCCCCCC(=O)*; Api = NC1(C(=O)O)CCNCC1; PEG2 = NCCOCCOCCC(=O)O; Ahx = NCCCCCC(=O)O; azaGly = NNC(=O)O; Sar = CNCC(=O)O

Chain of human kisspeptin receptor (Q969F8 whole entry): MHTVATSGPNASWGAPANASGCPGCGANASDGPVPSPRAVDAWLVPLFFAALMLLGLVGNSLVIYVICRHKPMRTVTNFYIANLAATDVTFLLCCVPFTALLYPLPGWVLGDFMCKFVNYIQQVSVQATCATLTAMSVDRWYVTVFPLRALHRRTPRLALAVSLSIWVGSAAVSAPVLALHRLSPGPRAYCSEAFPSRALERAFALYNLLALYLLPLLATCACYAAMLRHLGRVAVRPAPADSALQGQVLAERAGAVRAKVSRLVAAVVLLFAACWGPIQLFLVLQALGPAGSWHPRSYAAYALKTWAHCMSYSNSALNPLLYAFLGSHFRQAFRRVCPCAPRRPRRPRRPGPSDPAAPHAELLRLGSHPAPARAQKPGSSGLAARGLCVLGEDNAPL

For the compound `CC(C)C[C@H](NC(=O)NNC(=O)[C@H](Cc1ccccc1)NC(=O)[C@@H](NC(=O)[C@H](CC(N)=O)NC(=O)[C@H](Cc1ccc2ccccc2c1)NC(=O)[C@@H](Cc1ccc(O)cc1)NC(=O)CCCCCNC(=O)CN1CCN(CC(=O)O)CCN(CC(=O)O)CCN(CC(=O)O)CC1)[C@@H](C)O)C(=O)NC1(C(=O)N[C@@H](Cc2ccc(C#N)cc2)C(N)=O)CCN(C(=N)N)CC1` [Compound 278] ({DOTA-Ahx}-[dY][2Nal]NTF[azaGly]L[Api(1-amidino)][Phe(4-CN)]-NH2), the Ki was less than 10 nM. In the case of `COc1ccc(CNCC(=O)N2CCC(NC(=O)[C@H](CC(C)C)NC(=O)NNC(=O)[C@H](Cc3ccccc3)NC(=O)[C@@H](NC(=O)[C@H](CC(N)=O)NC(=O)[C@H](CCC(=O)O)NC(=O)CN3CCN(CC(=O)O)CCN(CC(=O)O)CCN(CC(=O)O)CC3)[C@@H](C)O)(C(=O)N[C@@H](Cc3ccccc3)C(N)=O)CC2)cc1` [Compound 237] ({DOTA}-ENTF[azaGly]L[Api](Gly(Nα-4-MeO-benzyl))F-NH2), the Ki was less than 10 nM. The value for `Cc1ccc(CNCC(=O)N2CCC(NC(=O)[C@H](CC(C)C)NC(=O)NNC(=O)[C@H](Cc3ccccc3)NC(=O)[C@@H](C)NC(=O)[C@@H](C)NC(=O)[C@@H](C)NC(=O)[C@@H](C)NC(=O)[C@@H](C)NC(=O)CCCCCNC(=O)CN3CCN(CC(=O)O)CCN(CC(=O)O)CCN(CC(=O)O)CC3)(C(=O)N[C@@H](Cc3c[nH]c4ccccc34)C(N)=O)CC2)cc1F` [Compound 13] ({DOTA-Ahx}-[dA][dA][dA][dA][dA]F[azaGly]L[Api](Gly(N-(3-F-4-Me-benzyl)))W-NH2) was 10 to 100 nM; that for `Cc1ccc(CNCC(=O)N2CCC(NC(=O)[C@@H](CC(C)C)NC(=O)NNC(=O)[C@H](Cc3ccccc3)NC(=O)c3ccc(CNC(=O)CN4CCN(CC(=O)O)CCN(CC(=O)O)CCN(CC(=O)O)CC4)cc3)(C(=O)N[C@@H](Cc3c[nH]c4ccccc34)C(N)=O)CC2)cc1F` [Compound 260] ({DOTA-4Amb}-F[azaGly][dL][Api](Gly(N-(3-F-4-Me-benzyl)))W-NH2) was 10 to 100 nM. Consider `Cc1ccc(CNCC(=O)N2CCC(NC(=O)[C@H](CC(C)C)NC(=O)NNC(=O)[C@H](Cc3ccccc3)NC(=O)CN3CCN(CC(=O)O)CCN(CC(=O)O)CCN(CC(=O)O)CC3)(C(=O)N[C@@H](Cc3c[nH]c4ccccc34)C(N)=O)CC2)cc1F` [Compound 49] ({DOTA}-F[azaGly]L[Api](Gly(N-(3-F-4-Me-benzyl)))W-NH2), for which the Ki was greater than 100 nM. On to `CNC(=N)N1CCC(NC(=O)[C@H](CC(C)C)NC(=O)NNC(=O)[C@H](Cc2ccccc2)NC(=O)[C@@H](NC(=O)[C@H](CC(N)=O)NC(=O)[C@@H](Cc2ccc3ccccc3c2)NC(=O)[C@@H](Cc2ccc(O)cc2)NC(=O)CCCCCNC(=O)CN2CCN(CC(=O)O)CCN(CC(=O)O)CCN(CC(=O)O)CC2)[C@@H](C)O)(C(=O)N[C@H](Cc2c[nH]c3ccccc23)C(N)=O)CC1` [Compound 319] ({DOTA-Ahx}-[dY][d2Nal]NTF[azaGly]L[X3][dW]-NH2), for which the Ki was greater than 100 nM.

Turning to `CC(C)C[C@H](NC(=O)NNC(=O)[C@H](Cc1ccccc1)NC(=O)[C@@H](NC(=O)[C@H](CC(N)=O)NC(=O)[C@H](Cc1ccncc1)NC(=O)[C@@H](Cc1ccc(O)cc1)NC(=O)CN1CCN(CC(=O)O)CCN(CC(=O)O)CCN(CC(=O)O)CC1)[C@@H](C)O)C(=O)NC1(C(=O)N[C@@H](Cc2ccncc2)C(N)=O)CCN(C(=N)N)CC1` [Compound 273] ({DOTA}-[dY][4Pal]NTF[azaGly]L[Api(1-amidino)][4Pal]-NH2), the Ki was in the range of 10 to 100 nM. With `Cc1ccc(CNCC(=O)N2CCC(NC(=O)[C@H](CC(C)C)NC(=O)NNC(=O)[C@H](Cc3ccccc3)NC(=O)[C@@H](NC(=O)[C@H](CC(N)=O)NC(=O)[C@@H]3CCCN3C(=O)[C@@H](Cc3ccc(O)cc3)NC(=O)CCCCCNC(=O)CN3CCN(CC(=O)O)CCN(CC(=O)O)CCN(CC(=O)O)CC3)[C@@H](C)O)(C(=O)N[C@@H](Cc3c[nH]c4ccccc34)C(N)=O)CC2)cc1F` [Compound 20] ({DOTA-Ahx}-[dY]PNTF[azaGly]L[Api](Gly(N-(3-F-4-Me-benzyl)))W-NH2), the Ki is less than 10 nM. The value for `Cc1ccc(CNCC(=O)N2CCC(NC(=O)[C@H](CC(C)C)NC(=O)NNC(=O)[C@H](Cc3ccccc3)NC(=O)[C@@H](N)CCCCNC(=O)CN3CCN(CC(=O)O)CCN(CC(=O)O)CCN(CC(=O)O)CC3)(C(=O)N[C@@H](Cc3c[nH]c4ccccc34)C(N)=O)CC2)cc1F` [Compound 37] (H-K(DOTA)F[azaGly]L[Api](Gly(N-(3-F-4-Me-benzyl)))W-NH2) was less than 10 nM; that for `CC(C)C[C@H](NC(=O)NNC(=O)[C@H](Cc1ccccc1)NC(=O)[C@@H](NC(=O)[C@H](CC(N)=O)NC(=O)[C@H](CCCCNC(=O)CN1CCN(CC(=O)O)CCN(CC(=O)O)CCN(CC(=O)O)CC1)NC(=O)[C@@H](Cc1ccc(O)cc1)NC(=O)CCOCCOCCNC(=O)CCc1ccc(I)cc1)[C@@H](C)O)C(=O)NC1(C(=O)N[C@@H](Cc2c[nH]c3ccccc23)C(N)=O)CCN(C(=N)N)CC1` [Compound 196] ({Hydrocinnamoyl(4-I)-PEG2}-[dY]K(DOTA)NTF[azaGly]L[Api(1-amidino)]W-NH2) was less than 10 nM; that for `Cc1ccc(CNCC(=O)N2CCC(NC(=O)[C@H](CC(C)C)NC(=O)NNC(=O)[C@H](Cc3ccccc3)NC(=O)CCCCCNC(=O)CN3CCN(CC(=O)O)CCN(CC(=O)O)CCN(CC(=O)O)CC3)(C(=O)N[C@@H](Cc3ccccc3)C(N)=O)CC2)cc1F` [Compound 55] ({DOTA-Ahx}-F[azaGly]L[Api](Gly(N-(3-F-4-Me-benzyl)))F-NH2) was less than 10 nM.

With `CNC(=N)N1CCC(NC(=O)[C@H](CC(C)C)NC(=O)NNC(=O)[C@H](Cc2ccccc2)NC(=O)CCCCCNC(=O)CN2CCN(CC(=O)O)CCN(CC(=O)O)CCN(CC(=O)O)CC2)(C(=O)N[C@@H](Cc2c[nH]c3ccccc23)C(N)=O)CC1` [Compound 189] ({DOTA-Ahx}-F[azaGly]L[X3]W-NH2), the Ki is greater than 100 nM. With `Cc1ccc(CNCC(=O)N2CCC(NC(=O)[C@H](CC(C)C)NC(=O)NNC(=O)[C@H](Cc3ccccc3)NC(=O)CN3CCC(NC(=O)CN4CCN(CC(=O)O)CCN(CC(=O)O)CCN(CC(=O)O)CC4)CC3)(C(=O)N[C@@H](Cc3ccncc3)C(N)=O)CC2)cc1F` [Compound 246] ({DOTA}-[X1]F[azaGly]L[Api](Gly(N-(3-F-4-Me-benzyl)))[4Pal]-NH2), the Ki fell in the range of 10 to 100 nM. The value for `Cc1ccc(CCCC(=O)NCCCC[C@@H](NC(=O)CCCCCNC(=O)CN2CCN(CC(=O)O)CCN(CC(=O)O)CCN(CC(=O)O)CC2)C(=O)N[C@H](Cc2ccc(O)cc2)C(=O)N[C@H](Cc2ccc3ccccc3c2)C(=O)N[C@@H](CC(N)=O)C(=O)N[C@H](C(=O)N[C@@H](Cc2ccccc2)C(=O)NNC(=O)N[C@@H](CC(C)C)C(=O)NC2(C(=O)N[C@@H](Cc3ccccc3)C(N)=O)CCN(C(=N)N)CC2)[C@@H](C)O)cc1` [Compound 309] ({DOTA-Ahx}-[dK](Butanoyl(4-(4-MePh)))[dY][d2Nal]NTF[azaGly]L[Api(1-amidino)]F-NH2) was less than 10 nM; that for `Cc1ccc(CNCC(=O)N2CCC(NC(=O)[C@H](CC(C)C)NC(=O)NNC(=O)[C@H](Cc3ccccc3)NC(=O)[C@@H](CC(N)=O)NC(=O)[C@@H](CC(N)=O)NC(=O)CN3CCN(CC(=O)O)CCN(CC(=O)O)CCN(CC(=O)O)CC3)(C(=O)N[C@@H](Cc3c[nH]c4ccccc34)C(N)=O)CC2)cc1F` [Compound 18] ({DOTA}-[dN][dN]F[azaGly]L[Api](Gly(N-(3-F-4-Me-benzyl)))W-NH2) was 10 to 100 nM. For `CCCCCCCC(=O)N[C@H](Cc1ccc(O)cc1)C(=O)N[C@H](CCCCNC(=O)CN1CCN(CC(=O)O)CCN(CC(=O)O)CCN(CC(=O)O)CC1)C(=O)N[C@@H](CC(N)=O)C(=O)N[C@H](C(=O)N[C@@H](CC1CCCCC1)C(=O)NNC(=O)N[C@@H](CC(C)C)C(=O)NC1(C(=O)N[C@H](Cc2c[nH]c3ccccc23)C(N)=O)CCN(C(=O)CNC)CC1)[C@@H](C)O` [Compound 355] (Octanoyl-[dY][dK](DOTA)NT[Cha][azaGly]L[Api](Sar)[dW]-NH2), the Ki was less than 10 nM.

For the compound `CC(C)C[C@H](NC(=O)NNC(=O)[C@H](Cc1ccccc1)NC(=O)[C@@H](NC(=O)[C@H](CC(N)=O)NC(=O)[C@H](CCCCNC(=O)CN1CCN(CC(=O)O)CCN(CC(=O)O)CCN(CC(=O)O)CC1)NC(=O)[C@@H](Cc1ccc(O)cc1)NC(=O)CC[C@@H](NC(=O)CCc1ccc(I)cc1)C(=O)O)[C@@H](C)O)C(=O)NC1(C(=O)N[C@@H](Cc2c[nH]c3ccccc23)C(N)=O)CCN(C(=N)N)CC1` [Compound 320] ({Hydrocinnamoyl(4-I)-d(γGlu)}-[dY]K(DOTA)NTF[azaGly]L[Api(1-amidino)]W-NH2), the Ki was less than 10 nM. The value for `Cc1ccc(CNCC(=O)N2CCC(NC(=O)[C@H](CC(C)C)NC(=O)NNC(=O)[C@H](Cc3cccc(F)c3)NC(=O)[C@@H](NC(=O)[C@H](CC(N)=O)NC(=O)[C@H](CCCCNC(=O)CN3CCN(CC(=O)O)CCN(CC(=O)O)CCN(CC(=O)O)CC3)NC(=O)[C@@H](Cc3ccc(O)cc3)NC(=O)COCCOCCO)[C@@H](C)O)(C(=O)N[C@@H](Cc3c[nH]c4ccccc34)C(N)=O)CC2)cc1F` [Compound 64] ({Acetyl(2-(HOCH2CH2OCH2CH2O))}-[dY]K(DOTA)NT[Phe(3-F)][azaGly]L[Api](Gly(N-(3-F-4-Me-benzyl)))W-NH2) was less than 10 nM. In the case of `CC(C)C[C@H](NC(=O)NNC(=O)[C@H](Cc1ccccc1)NC(=O)[C@@H](NC(=O)[C@H](CC(N)=O)NC(=O)[C@H](CCCCNC(=O)CN1CCN(CC(=O)O)CCN(CC(=O)O)CCN(CC(=O)O)CC1)NC(=O)[C@@H](Cc1ccc(O)cc1)NC(=O)CCOCCOCCNC(=O)CCc1ccc(I)cc1)[C@@H](C)O)C(=O)NC1(C(=O)N[C@@H](Cc2ccc(C#N)cc2)C(N)=O)CCN(C(=N)N)CC1` [Compound 325] ({Hydrocinnamoyl(4-I)-PEG2}-[dY]K(DOTA)NTF[azaGly]L[Api(1-amidino)][Phe(4-CN)]-NH2) it was less than 10 nM.

The record behind these values is patent US20250312499A1, “KISSPEPTIN RECEPTOR (KISS1R) TARGETED THERAPEUTICS AND USES THEREOF” (priority 2024, published 2025).
